Columns and labels:
Format in all cases: in vivo, human
[1] = tested on: patients with confirmed symptomatic proximal DVT; assay: Change in thrombotic burden assessed by central adjudication committee (CUS and PLS vs baseline), phase II study
Description: (§1) The study design is illustrated in FIG. 1.
(§2) Each treatment group was to consist of 130 patients, of which at least 100 patients eligible for inclusion in the Intent-To-Treat (ITT) group. Subjects in the SanOrg34006 treatment groups were to be followed-up during a four-week period after the final assessments.
Primary efficacy parameter: change in thrombotic burden as assessed by the central adjudication committee using a 3-point ordinal outcome scale for the comparison of CUS and PLS (Perfusion Lung Scan) after 12 weeks of randomized treatment with baseline measurements (i.e. deterioration, normalization, or no relevant change) including a supplementary analysis on substantial improvement.
(§3) Secondary efficacy parameters: change in thrombotic burden using a binary scale (i.e. deterioration versus no deterioration); change of CUS on a 3-point ordinal scale; change of PLS on a 3-point ordinal scale; the composite clinical outcome (non-fatal symptomatic PE and/or recurrent DVT, death due to PE and/or DVT or unexplained, and any important change in therapeutic management of thrombotic events); coagulation markers: plasma D-dimer (fibrin fragment, released in process of thrombolysis; measure for ongoing thrombosis) and TAT (Thrombin-Antithrombin Complex) concentrations during the study treatment. • Safety

[2] = tested on: patients with confirmed symptomatic proximal DVT; assay: Composite clinical outcome assessed by CAC (recurrent DVT, symptomatic PE or unexplained death), phase II study
Description: as §1, §2, §3

[3] = tested on: patients with confirmed symptomatic proximal DVT; assay: Bleeding events during randomized treatment, phase II study
Description: as §1, §2
Primary safety parameters: incidence of major bleeding and decreased platelet count.

[4] = tested on: patients with confirmed symptomatic proximal DVT; assay: Tolerability: adverse events, laboratory parameters, vital signs, phase II study
Description: as §1, §2
Secondary efficacy parameters: (serious) adverse events, laboratory parameters (hematology, biochemistry, coagulation status, platelet counts), and vital signs (blood pressure, heart rate, body weight).

[5] = Plasma concentrations / population pharmacokinetics of SanOrg34006, phase II study
Procedure: The secondary objective was to assess population pharmacokinetics of SanOrg34006.
Plasma concentrations of SanOrg34006 were assessed within 48 h prior to the administration of SanOrg34006 in Weeks 2, 4 and 7. In addition during Week 7 within the time frames 0.5-2 h, 2-6 h, 6-48 h and 120-168 h post dose. In a subset of patients a more extensive sampling scheme was applied with pre-dose samples before each administration and the serial scheme for Week 7 also applied to Week 1 and 12.

[6] = oral warfarin, 12-week course, ITT (N = 124)
[7] = oral warfarin, all patients with randomized treatment (N = 132)
[8] = SanOrg34006 2.5 mg SC once weekly, 12 weeks, ITT (N = 125)
[9] = SanOrg34006 5 mg SC once weekly, 12 weeks, ITT (N = 128)
[10] = SanOrg34006 7.5 mg SC once weekly, 12 weeks, ITT (N = 118)
[11] = SanOrg34006 10 mg SC once weekly, 12 weeks, ITT (N = 119)
[12] = Week 12 vs first administration

CC(=O)CC(c1ccccc1)c1c(O)c2ccccc2oc1=O (centres unmarked) [Warfarin, warfarin, reference compound]
Deterioration, overall change in thrombotic burden (2-point scale) [1, 6]: 9 (7.3) n (%)
Deterioration, overall change in thrombotic burden (3-point scale) [1, 6]: 9 (7.3) n (%)
No Deterioration, overall change in thrombotic burden (2-point scale) [1, 6]: 115 (92.7) n (%)
No Relevant Change, overall change in thrombotic burden (3-point scale) [1, 6]: 84 (67.7) n (%)
Normalization, overall change in thrombotic burden (3-point scale) [1, 6]: 31 (25.0) n (%)
Yes: fatal or non-fatal recurrent DVT, symptomatic PE or unexplained death (composite clinical outcome) [2, 6]: 2 (1.6) n (%)
Any Bleeding during randomized treatment [3, 7]: 11 (8.3) n (%)
Major Bleeding during randomized treatment [3, 7]: 1 (0.8) n (%)
No Major Bleeding during randomized treatment [3, 7]: 131 (99.2) n (%)
tolerability in terms of adverse events (other than bleeding events), laboratory parameters, and vital signs ([4]; all SanOrg34006 doses, warfarin): generally well tolerated

CO[C@H]1O[C@H](COS(=O)(=O)O)[C@@H](O[C@@H]2O[C@@H](C(=O)O)[C@@H](O[C@H]3O[C@H](COS(=O)(=O)O)[C@@H](O[C@@H]4O[C@H](C(=O)O)[C@@H](O[C@H]5O[C@H](COS(=O)(=O)O)[C@@H](OC)[C@H](OC)[C@H]5OC)[C@H](OC)[C@H]4OC)[C@H](OS(=O)(=O)O)[C@H]3OS(=O)(=O)O)[C@H](OC)[C@H]2OC)[C@H](OS(=O)(=O)O)[C@H]1OS(=O)(=O)O [SanOrg34006, methyl O-(2,3,4-tri-O-methyl-6-O-sulfo-α-D-glucopyranosyl)-(1→4)-O-(2,3-di-O-methyl-β-D-glucopyranosyluronic acid)-(1→4)-O-(2,3,6-tri-O-sulfo-α-D-glucopyranosyl)-(1→4)-O-(2,3-di-O-methyl-α-L-idopyranosyluronic acid)-(1→4)-2,3,6-tri-O-sulfo-α-D-glucopyranoside]
Deterioration, overall change in thrombotic burden (2-point scale) [1, 8]: 6 (4.8) n (%)
Deterioration, overall change in thrombotic burden (3-point scale) [1, 8]: 6 (4.8) n (%)
No Deterioration, overall change in thrombotic burden (2-point scale) [1, 8]: 119 (95.2) n (%)
No Relevant Change, overall change in thrombotic burden (3-point scale) [1, 8]: 87 (69.6) n (%)
Normalization, overall change in thrombotic burden (3-point scale) [1, 8]: 32 (25.6) n (%)
Deterioration, overall change in thrombotic burden (2-point scale) [1, 9]: 8 (6.3) n (%)
Deterioration, overall change in thrombotic burden (3-point scale) [1, 9]: 8 (6.3) n (%)
No Deterioration, overall change in thrombotic burden (2-point scale) [1, 9]: 120 (93.8) n (%)
No Relevant Change, overall change in thrombotic burden (3-point scale) [1, 9]: 89 (69.5) n (%)
Normalization, overall change in thrombotic burden (3-point scale) [1, 9]: 31 (24.2) n (%)
Deterioration, overall change in thrombotic burden (2-point scale) [1, 10]: 8 (6.8) n (%)
Deterioration, overall change in thrombotic burden (3-point scale) [1, 10]: 8 (6.8) n (%)
No Deterioration, overall change in thrombotic burden (2-point scale) [1, 10]: 110 (93.2) n (%)
No Relevant Change, overall change in thrombotic burden (3-point scale) [1, 10]: 81 (68.6) n (%)
Normalization, overall change in thrombotic burden (3-point scale) [1, 10]: 29 (24.6) n (%)
Deterioration, overall change in thrombotic burden (2-point scale) [1, 11]: 15 (12.6) n (%)
Deterioration, overall change in thrombotic burden (3-point scale) [1, 11]: 15 (12.6) n (%)
No Deterioration, overall change in thrombotic burden (2-point scale) [1, 11]: 104 (87.4) n (%)
No Relevant Change, overall change in thrombotic burden (3-point scale) [1, 11]: 74 (62.2) n (%)
Normalization, overall change in thrombotic burden (3-point scale) [1, 11]: 30 (25.2) n (%)
efficacy compared with warfarin ([1]; SanOrg34006 doses tested): No differences in efficacy
dose-response relationship for primary and secondary efficacy endpoints ([1]; tested doses 2.5-10 mg): No statistically significant dose-response relationship
No fatal or non-fatal recurrent DVT, symptomatic PE or unexplained death (composite clinical outcome) [2, 8]: 125 (100.0) n (%)
Yes: fatal or non-fatal recurrent DVT, symptomatic PE or unexplained death (composite clinical outcome) [2, 8]: 0 (0.0) n (%)
No fatal or non-fatal recurrent DVT, symptomatic PE or unexplained death (composite clinical outcome) [2, 9]: 126 (98.4) n (%)
Yes: fatal or non-fatal recurrent DVT, symptomatic PE or unexplained death (composite clinical outcome) [2, 9]: 2 (1.6) n (%)
No fatal or non-fatal recurrent DVT, symptomatic PE or unexplained death (composite clinical outcome) [2, 10]: 118 (100.0) n (%)
Yes: fatal or non-fatal recurrent DVT, symptomatic PE or unexplained death (composite clinical outcome) [2, 10]: 0 (0.0) n (%)
No fatal or non-fatal recurrent DVT, symptomatic PE or unexplained death (composite clinical outcome) [2, 11]: 116 (97.5) n (%)
Yes: fatal or non-fatal recurrent DVT, symptomatic PE or unexplained death (composite clinical outcome) [2, 11]: 3 (2.5) n (%)
dose group outcome under stopping rule for major bleedings ([3]; in vivo): prematurely discontinued
plasma concentrations relative to levels associated with an increased bleeding risk ([5]; 2.5 mg SanOrg34006): remained below the levels associated with an increased bleeding risk
share of patient population with plasma levels 'too low' in terms of the ACCP guidelines ([5]; 2.5 mg dose group): 75%
dose proportionality of pharmacokinetics ([5]; 2.5-10 mg once weekly): Dose-proportional
AUC values at steady state relative to first administration [5, 12]: twice as high
trough concentrations at steady state relative to first administration [5, 12]: three times as high
anti-Xa activity corresponding with plasma trough levels ([5]; dose of 2.5 mg, once a week): 0.09-0.26 anti-Xa U/mL
plasma trough levels (Cmin) ([5]; dose of 2.5 mg, once a week): 126 ± 63 ng/mL
time at which steady state had been reached ([5]; once-weekly administration): Week 12
tolerability in terms of adverse events (other than bleeding events), laboratory parameters, and vital signs ([4]; in vivo): generally well tolerated

Source: patent US7709463B2, “Idraparinux (SanOrg34006) for treatment of venous events in patients with deep venous thrombosis” (Sanofi-Aventis, priority 2002, dated 2010)
